Experimental data from BigSolDB 2.1.

CCCCN1CCCCC1C(=O)Nc1c(C)cccc1C.Cl (stereo unspecified)
solubility (mole fraction)
Details | 293.15 K | 298.15 K | 303.15 K | 308.15 K | 313.15 K | 318.15 K | 323.15 K | 328.15 K | 333.15 K
in DMF | 0.0036 | 0.0049 | 0.0062 | 0.0079 | 0.0096 | 0.0117 | 0.0128 | 0.0149 | 0.0172
in acetic acid | 0.0322 | 0.0367 | 0.0399 | 0.0475 | 0.0601 | 0.0702 | 0.0879 | 0.109 | 0.13
in ethanol | 0.0087 | 0.0099 | 0.0115 | 0.0139 | 0.0169 | 0.0207 | 0.0254 | 0.0312 | 0.0372
in isopropanol | 0.002 | 0.0023 | 0.0028 | 0.0032 | 0.0037 | 0.0045 | 0.0051 | 0.006 | 0.0069
in methanol | 0.0116 | 0.014 | 0.0167 | 0.0206 | 0.0249 | 0.0295 | 0.0346 | 0.0407 | –
in n-butanol | 0.0108 | 0.0121 | 0.0142 | 0.0164 | 0.0198 | 0.0236 | 0.0288 | 0.0355 | 0.0412
in n-propanol | 0.0051 | 0.0058 | 0.0084 | 0.0101 | 0.0135 | 0.0172 | 0.0216 | 0.0281 | 0.0342
in water | 0.0017 | 0.0019 | 0.0021 | 0.0022 | 0.0025 | 0.0028 | 0.0032 | 0.0036 | 0.0041
